Article PMC11053683, “Tuning of the Anti-Breast Cancer Activity of Betulinic Acid via Its Conversion to Ionic Liquids” (Pharmaceutics, 2024)
Read-outs that look alike come from different tables or passages of the source.

What was measured:
[1] = Estimation of the water solubility (DMSO stock diluted with deionized water until sediment); assay type: physicochemical; design: key: “5×”: weak; “10×”: middle; “20×”:good’; “50×”: very good; “100×”: excellent; settings: 1 mg in 100 μL DMSO, class by dilution factor
Method: The water solubility of betulinic acid and its derivatives was evaluated following the described method. For this purpose, 1 mg of the substance was dissolved in 100 μL of DMSO. The stock solution was diluted with 10 μL potions of deionized water until the sediment was observed. 10 μL portions were added to produce dilutions corresponding to 5 times, 10 times, 20 times, 50 times, and 100 times the original concentration.

[2] = Thermal stability by thermogravimetric analysis (TG); assay type: physicochemical
Method: The test was conducted in the 25–1000 °C temperature range at a heating rate of 10 ° min^−1 under air (flow rate of 25 cm^−3min^−1) and nitrogen (flow rate of 10 cm^−3min^−1). The weight of the samples was 5–7 mg.

MCF-7 cells [3] = assay: Colony formation (clonogenic) assay; assay type: cell-based, human; settings: for effect on MCF-7 colony formation: 2.5–12.5 µM
Method: Clonogenic assays were performed, and surviving fractions were calculated as described by Franken et al.. Briefly, MCF-7 cells were seeded in 6-well plates at a concentration of 500 cells/well and allowed to adhere for 48 h and subsequently treated with 2.5–12.5 µM concentration of BA and selected BA-ILs (Day 1). The BA and BA-ILs were replenished every 4 days. On Day 10, cells were fixed with 10% formalin in phosphate-buffered saline (PBS), pH 7.4 for 30 min at room temperature (RT), washed with PBS and stained with 0.1% Crystal violet solution in ddH2O, 30 min, RT, followed by a final thorough wash in ddH2O. The colonies were then imaged and analyzed with the open-source platform Fiji.

MCF-7 cells [4] = assay: Cell morphology analysis by light microscopy; assay type: cell-based, human; settings: MCF-7, 72 h, concentration close to IC50
Method: The changes in cell morphology after a 72 h treatment with BA and [AAOEt][BA] were observed under an inverted microscope (MEIJI, Japan) with objective 10 (Phase DM, MEIJI, Japan) and camera Optikam B1 Digital (Optika, Ponteranica, Bergamo, Italy).

[5] = design: method as in PMID 28273859; settings: cited from earlier work
[6] = design: method as in PMID 28273859; settings: model of intestinal mucus, compared to known drugs; cited from earlier work
MCF-7 cells [7] = assay: MTT assay, cytotoxicity on MCF-7 cells
MCF-7 cells [8] = test system: MCF-7 cells
MCF-10A cells = assay: MTT assay, cytotoxicity on MCF-10A cells; assay type: cell-based, human; settings: 72 h
Method: The assay was conducted as described by Mosmann. […] Non-treated cancer cells were used as a control.

SMILES	Water Solubility [1]	TDTGmax (maximum decomposition temperature) ([2]; TG, 25–1000 °C, 10 °/min) [°C]	TTGonset (onset of the thermal degradation) [2] [°C]	IC50 (MCF-7 cells [7]; MCF-7, 72 h, MTT) [µM]	other results
C=C(C)[C@@H]1CC[C@]2(C(=O)O)CC[C@]3(C)[C@H](CC[C@@H]4[C@@]5(C)CC[C@H](O)C(C)(C)[C@@H]5CC[C@]43C)[C@@H]12 [BA, Betulinic acid]	weak	358.7	–	–	TTGonset (onset of the thermal degradation) ([2]; TG, 25–1000 °C, 10 °/min): 305.7 °C; effect on MCF-7 colony formation (MCF-7 cells [3]): did not inhibit MCF-7 colony formation; changes in cell numbers and morphology (MCF-7 cells [4]): reduction in cell numbers; bioavailability [5]: 2.3%; permeability classification [6]: moderate to poorly permeable; IC50 (MCF-7 cells [7]; Homo sapiens, MCF7, 72 h): 11.5 ± 1.8 µM
C=C(C)C1CCC2(C(=O)O)CCC3(C)C(CCC4C5(C)CCC(O)C(C)(C)C5CCC43C)C12.CCOC(=O)C(C)N (centres unmarked) [[AlaOEt][BA]]	weak	370.7	92.0	12.7 ± 4.5	–
C=C(C)C1CCC2(C(=O)O)CCC3(C)C(CCC4C5(C)CCC(O)C(C)(C)C5CCC43C)C12.CCOC(=O)CC(N)C(=O)OCC (centres unmarked) [[Asp(OEt)2][BA]]	middle	357.4	119.8	8.9 ± 2.1	–
C=C(C)C1CCC2(C(=O)O)CCC3(C)C(CCC4C5(C)CCC(O)C(C)(C)C5CCC43C)C12.CCOC(=O)C(N)CS (centres unmarked) [[CysOEt][BA]]	middle	359.2	150.1	9.6 ± 3.8	–
C=C(C)C1CCC2(C(=O)O)CCC3(C)C(CCC4C5(C)CCC(O)C(C)(C)C5CCC43C)C12.CCOC(=O)C(N)C(C)CC (centres unmarked) [[IleOEt][BA]]	weak	369.0	127.5	8.5 ± 1.3	cytotoxicity / IC50 compared with BA (MCF-7 cells [8]): IC50 values lower than that of BA
C=C(C)C1CCC2(C(=O)O)CCC3(C)C(CCC4C5(C)CCC(O)C(C)(C)C5CCC43C)C12.CCOC(=O)C(N)CC(C)C (centres unmarked) [[LeuOEt][BA]]	–	359.4	114.9	7.5 ± 1.2	–
C=C(C)C1CCC2(C(=O)O)CCC3(C)C(CCC4C5(C)CCC(O)C(C)(C)C5CCC43C)C12.C=C(C)C1CCC2(C(=O)O)CCC3(C)C(CCC4C5(C)CCC(O)C(C)(C)C5CCC43C)C12.CCOC(=O)C(N)CCCCN (centres unmarked) [[LysOEt][BA]2]	good	368.8	157.7	4.8 ± 1.3	cell specificity of action (MCF-10A vs MCF-7) (MCF-10A cells): did not show any cell specificity; IC50 (MCF-10A cells; MCF-10A): 4 µM; surviving fraction (cell clonogenicity) (MCF-7 cells [3]; MCF-7, 12.5 µM, vs non-treated control, Day 10): below 20%; clonogenic efficiency (MCF-7 cells [3]; MCF-7, compared to that of BA (abstract)): 20%; changes in cell numbers and morphology (MCF-7 cells [4]): cell rounding and shrinkage
C=C(C)C1CCC2(C(=O)O)CCC3(C)C(CCC4C5(C)CCC(O)C(C)(C)C5CCC43C)C12.CCOC(=O)C(N)CCCCN (centres unmarked) [[LysOEt][BA]]	very good	327.3	144.0	12.9 ± 0.3	–
C=C(C)C1CCC2(C(=O)O)CCC3(C)C(CCC4C5(C)CCC(O)C(C)(C)C5CCC43C)C12.CCOC(=O)C(N)CCSC (centres unmarked) [[MetOEt][BA]]	weak	358.6	–	7.5 ± 0.3	TTGonset (onset of the thermal degradation) ([2]; TG, 25–1000 °C, 10 °/min): 125.7 °C; cytotoxicity / IC50 compared with BA (MCF-7 cells [7]; MCF-7, 72 h, MTT): IC50 values lower than that of BA
C=C(C)C1CCC2(C(=O)O)CCC3(C)C(CCC4C5(C)CCC(O)C(C)(C)C5CCC43C)C12.CCOC(=O)C(N)Cc1ccccc1 (centres unmarked) [[PheOEt][BA]]	middle	360.1	133.9	12.3 ± 1.7	cytotoxicity / IC50 compared with BA (MCF-7 cells [8]): cytotoxicity similar to BA
C=C(C)C1CCC2(C(=O)O)CCC3(C)C(CCC4C5(C)CCC(O)C(C)(C)C5CCC43C)C12.CCOC(=O)C1CCCN1 (centres unmarked) [[ProOEt][BA]]	weak	372.1	121.6	7.6 ± 1.8	–
C=C(C)C1CCC2(C(=O)O)CCC3(C)C(CCC4C5(C)CCC(O)C(C)(C)C5CCC43C)C12.CCOC(=O)C(N)CO (centres unmarked) [[SerOEt][BA]]	middle	364.1	118.2	12.2 ± 2.6	–
C=C(C)C1CCC2(C(=O)O)CCC3(C)C(CCC4C5(C)CCC(O)C(C)(C)C5CCC43C)C12.CCOC(=O)C(N)C(C)O (centres unmarked) [[ThrOEt][BA]]	middle	353.5	109.0	8.2 ± 2.4	–
C=C(C)C1CCC2(C(=O)O)CCC3(C)C(CCC4C5(C)CCC(O)C(C)(C)C5CCC43C)C12.CCOC(=O)C(N)Cc1c[nH]c2ccccc12 (centres unmarked) [[TrpOEt][BA]]	middle	359.8	–	13.1 ± 0.4	cytotoxicity / IC50 compared with BA (MCF-7 cells [8]): cytotoxicity similar to BA
C=C(C)C1CCC2(C(=O)O)CCC3(C)C(CCC4C5(C)CCC(O)C(C)(C)C5CCC43C)C12.CCOC(=O)C(N)Cc1ccc(O)cc1 (centres unmarked) [[TyrOEt][BA]]	weak	354.4	202.3	14.2 ± 2.4	cytotoxicity / IC50 compared with BA (MCF-7 cells [8]): cytotoxicity similar to BA
C=C(C)C1CCC2(C(=O)O)CCC3(C)C(CCC4C5(C)CCC(O)C(C)(C)C5CCC43C)C12.CCOC(=O)C(N)C(C)C (centres unmarked) [[ValOEt][BA]]	weak	354.0	116.8	25.7 ± 0.8	effect on MCF-7 colony formation (MCF-7 cells [3]): did not inhibit MCF-7 colony formation
